Each structure is given as a SMILES string.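 1) Cells in 96-well plates. 2) Compound, 48 h, 5 concentrations. 3) Linear interpolation between surrounding doses. 4) Unreached endpoint = highest concentration. GI50 marks 50% less growth.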 Activity calls are given as the source filed them. Cut-off read from the data, not from the text of the source: active = GI50 up to about 1.1 µM and inactive = higher.

Test systems include SF-268; COLO 205; ACHN; SK-OV-3; MCF7; SF-295; NCI-H460; EKVX; 786-0; DU-145; HCC 2998; HCT-15; A549; NCI-H23; LOX IMVI; NCI/ADR-RES; HCT-116; SW-620; RPMI-8226; SR.
Assay in all cases: NCI tumour cell line growth inhibition, 48 h

With `COC(=O)C1(C(=O)OC)CC2=C(S(=O)(=O)c3ccccc3)C[C@@H](C#N)[C@H]2C1`, the GI50 in the test on SF-268 was > 100 µM (inactive); in the test with COLO 205, > 100 µM (inactive); in the test on ACHN, > 100 µM (inactive); in the test on SK-OV-3 it was > 100 µM (inactive); in the test with MCF7, 47.5 µM (inactive); with SF-295, > 100 µM (inactive). Besides, the GI50 in the test with NCI-H460 was 91.4 µM (inactive); with EKVX, > 100 µM (inactive); in the test on 786-0, > 100 µM (inactive); in the test on DU-145, > 100 µM (inactive); in the test with HCC 2998 it was 16 µM (inactive); in the test with HCT-15, 37.9 µM. In addition, the GI50 in the test on A549, in the test with NCI-H23, in the test with LOX IMVI, in the test on NCI/ADR-RES, in the test with HCT-116 and in the test with SW-620 was > 100 µM (inactive) each time.

On to `FC(F)(F)c1ccc2nc(Sc3ccc4ccccc4c3)cnc2c1`, for which the GI50 with SF-268 was > 100 µM (inactive); in the test on COLO 205, 75 µM (inactive); in the test with ACHN, > 100 µM (inactive); with SK-OV-3, > 100 µM (inactive); in the test with MCF7, 45 µM (inactive); in the test with SF-295 it was 65.2 µM (inactive). Besides, the GI50 was 73.1 µM (inactive) with NCI-H460; 94 µM (inactive) in the test on EKVX; 40.5 µM (inactive) with 786-0; > 100 µM (inactive) in the test with DU-145; 52 µM (inactive) with HCC 2998; 44.7 µM in the test on HCT-15. Moreover, the GI50 in the test on A549 is > 100 µM (inactive); in the test with NCI-H23 it was 41.9 µM (inactive); in the test on LOX IMVI, 44.1 µM (inactive); in the test with NCI/ADR-RES, 60 µM (inactive); in the test with HCT-116, 46 µM (inactive); with SW-620, 77.4 µM (inactive).

With `O=NC1c2cccc3cccc(c23)C1N=O` (centres undefined), the GI50 is 10.2 µM (inactive) with SF-268; 3.17 µM (inactive) in the test on COLO 205; 1.72 µM (inactive) with ACHN; 11 µM (inactive) in the test with SK-OV-3; 8.17 µM (inactive) in the test with RPMI-8226; 7.93 µM (inactive) in the test with MCF7. For the same compound, the GI50 in the test on SF-295 is 9.31 µM (inactive); in the test on NCI-H460 it was 4.36 µM (inactive); in the test on EKVX, 2.58 µM (inactive); in the test with 786-0, 12.9 µM (inactive); in the test with DU-145, 11.1 µM (inactive); with HCT-15, 1.79 µM. The GI50 in the test on A549 was 2.43 µM (inactive); in the test with NCI-H23 it was 8.87 µM (inactive); in the test on LOX IMVI it was 1.59 µM (inactive); in the test on NCI/ADR-RES, 2.39 µM (inactive); with HCT-116, 1.34 µM (inactive); in the test on SW-620, 2.45 µM (inactive).

With `OC(C/C=N/Nc1ccccc1)(C(F)(F)Cl)C(F)(F)Cl`, the GI50 in the test with SF-268 is > 10 µM (inactive); with COLO 205 it was > 10 µM (inactive); with ACHN, 4.49 µM (inactive); with SK-OV-3 it was > 10 µM (inactive); with MCF7 it was > 10 µM (inactive); with SF-295, > 10 µM (inactive). The GI50 in the test with NCI-H460 is 5.53 µM (inactive); in the test with EKVX, > 10 µM (inactive); with 786-0, > 10 µM (inactive); in the test on DU-145, > 10 µM (inactive); in the test with HCC 2998, 4.12 µM (inactive); with HCT-15, 5.2 µM. Also, the GI50 is > 10 µM (inactive) with A549; 7.23 µM (inactive) in the test with NCI-H23; > 10 µM (inactive) with LOX IMVI; > 10 µM (inactive) in the test with NCI/ADR-RES; 5.15 µM (inactive) in the test on HCT-116; > 10 µM (inactive) in the test on SW-620.

On to `O=C1CC(c2ccc(O)cc2)C2(O1)C(=O)OC(C(O)CO)C2O` (centres undefined), for which the GI50 in the test with SF-268, in the test with COLO 205, in the test with ACHN, in the test on SK-OV-3, in the test with RPMI-8226 and in the test with MCF7 was > 100 µM (inactive) each time. Besides, the GI50 in the test on SF-295 is > 100 µM (inactive); in the test with EKVX, > 100 µM (inactive); in the test with 786-0 it was > 100 µM (inactive); in the test on DU-145, > 100 µM (inactive); in the test with HCT-15, above 100 µM; with NCI-H23 it was > 100 µM (inactive). Further, the GI50 in the test on LOX IMVI, with NCI/ADR-RES, with HCT-116 and in the test on SW-620 was > 100 µM (inactive) each time.

Turning to `O=C1/C(=C/c2cccc3ccccc23)Cc2ccccc21`, the GI50 with SF-268 was 22.6 µM (inactive); in the test on ACHN, 36.5 µM (inactive); with SK-OV-3, 18.6 µM (inactive); in the test with RPMI-8226, 51.9 µM (inactive); with MCF7, 5.93 µM (inactive); in the test on NCI-H460, 36.6 µM (inactive). Further, the GI50 was 57.3 µM (inactive) in the test with SR; 26.3 µM (inactive) with EKVX; 20.4 µM (inactive) in the test with 786-0; 15.5 µM (inactive) in the test on HCC 2998; 34.9 µM in the test with HCT-15; 38.4 µM (inactive) in the test on A549. For the same compound, the GI50 was 17.1 µM (inactive) in the test with NCI-H23, 34.4 µM (inactive) in the test on LOX IMVI, 52.2 µM (inactive) in the test on NCI/ADR-RES and 31.6 µM (inactive) with SW-620.

Consider `CCSCCCSCCSCC`, for which the GI50 with SF-268, in the test with COLO 205, in the test with SK-OV-3, in the test on MCF7, in the test on SF-295 and in the test on NCI-H460 was > 100 µM (inactive) in each case. The GI50 with EKVX was > 100 µM (inactive); in the test on 786-0, > 100 µM (inactive); with DU-145, > 100 µM (inactive); in the test with HCC 2998 it was > 100 µM (inactive); in the test on HCT-15 it was above 100 µM; in the test on A549 it was > 100 µM (inactive). Also, the GI50 with NCI-H23, in the test with LOX IMVI, in the test on HCT-116 and in the test on SW-620 was > 100 µM (inactive) each time.

As for `O=[N+]([O-])c1ccc(/C=N/n2c(CO)nc3ccccc32)o1`, the GI50 in the test with SF-268 was 10.4 µM (inactive); in the test on COLO 205, 3.1 µM (inactive); in the test on ACHN, 4.25 µM (inactive); with SK-OV-3 it was 18.2 µM (inactive); with RPMI-8226, 3.43 µM (inactive); in the test with MCF7, 2.96 µM (inactive). The GI50 in the test with SF-295 was 11.7 µM (inactive); with NCI-H460, 3.29 µM (inactive); in the test on EKVX it was 11.3 µM (inactive); in the test on 786-0 it was 4.04 µM (inactive); in the test with DU-145, 3.27 µM (inactive); with HCT-15 it was 2.84 µM. Further, the GI50 in the test on A549 is 10.5 µM (inactive); with NCI-H23, 5.42 µM (inactive); in the test on LOX IMVI, 2.92 µM (inactive); in the test on NCI/ADR-RES it was 15.7 µM (inactive); in the test on HCT-116 it was 1.71 µM (inactive); with SW-620, 5.71 µM (inactive).

For the compound `COC1(OC)C[C@H](C)[C@@]23O[C@]24c2cc(O)c5c(c2N[C@H]3C#C/C=C\C#C[C@]14O)C(=O)c1ccccc1C5=O`, the GI50 with SF-268 was 0.005 µM (active); in the test on COLO 205, 0.005 µM (active); in the test on SK-OV-3 it was < 0.001 µM (active); in the test on RPMI-8226, 0.005 µM (active); in the test with MCF7 it was 0.005 µM (active); in the test on SF-295, 0.005 µM (active). In addition, the GI50 in the test on NCI-H460 is < 0.001 µM (active); in the test with EKVX it was 0.0286 µM (active); in the test with 786-0 it was 0.005 µM (active); with DU-145 it was 0.005 µM (active); with HCC 2998, 0.00805 µM (active); in the test with HCT-15, 0.005 µM. Moreover, the GI50 in the test with A549, with NCI-H23, with LOX IMVI, in the test on NCI/ADR-RES, in the test with HCT-116 and in the test with SW-620 was 0.005 µM (active) throughout.

`CC(=O)Oc1ccc2cc(Oc3cc(Cl)c(Cl)cc3Cl)c(=O)oc2c1`: the GI50 in the test on SF-268 is 26.9 µM (inactive); in the test on ACHN it was 22.9 µM (inactive); in the test on MCF7, 24.2 µM (inactive); in the test with SF-295, 22.4 µM (inactive); in the test with NCI-H460, 18.8 µM (inactive); in the test on SR it was 19.8 µM (inactive). In addition, the GI50 in the test with EKVX was 24.4 µM (inactive); with 786-0, 15.6 µM (inactive); in the test on DU-145, 25.3 µM (inactive); in the test on HCC 2998, 17.1 µM (inactive); in the test on HCT-15, 13.1 µM; in the test on A549, 16.4 µM (inactive). Besides, the GI50 in the test on NCI-H23 is 22.2 µM (inactive); in the test on LOX IMVI it was 15.4 µM (inactive); with HCT-116 it was 14.9 µM (inactive); in the test with SW-620, 14.8 µM (inactive).

Turning to `CCc1cn(C2CC(CO)C(CO)S2)c(=O)[nH]c1=O` (centres undefined), the GI50 in the test with SF-268, in the test with COLO 205, in the test with ACHN, in the test on SK-OV-3, in the test on RPMI-8226 and in the test with MCF7 was > 100 µM (inactive) in each case. Also, the GI50 is > 100 µM (inactive) in the test with SF-295; > 100 µM (inactive) in the test on EKVX; > 100 µM (inactive) in the test on 786-0; > 100 µM (inactive) in the test on DU-145; > 100 µM (inactive) in the test on HCC 2998; above 100 µM in the test on HCT-15. The GI50 in the test with A549, with NCI-H23, in the test on LOX IMVI, in the test on NCI/ADR-RES, in the test with HCT-116 and in the test with SW-620 was > 100 µM (inactive) each time.

As for `CN(C)CCS/C(=N\c1ccccc1)N1C=COC=C1`, the GI50 in the test with SF-268 was 15.8 µM (inactive); in the test on COLO 205, 27.2 µM (inactive); in the test with ACHN, 34.1 µM (inactive); in the test on SK-OV-3 it was > 100 µM (inactive); in the test with RPMI-8226, 61.7 µM (inactive); in the test with MCF7 it was 17.9 µM (inactive). Also, the GI50 in the test on SF-295 is 99.8 µM (inactive); in the test with NCI-H460 it was > 68.5 µM (inactive); with SR, 68.9 µM (inactive); in the test on EKVX, 86.1 µM (inactive); in the test with 786-0 it was 20.1 µM (inactive); in the test on DU-145, 75.9 µM (inactive). In addition, the GI50 is 24.7 µM (inactive) with HCC 2998; 20.5 µM in the test with HCT-15; > 100 µM (inactive) in the test on A549; 25.8 µM (inactive) with NCI-H23; 16 µM (inactive) in the test with LOX IMVI; 23.6 µM (inactive) with HCT-116. For the same compound, the GI50 with SW-620 is 21.4 µM (inactive).
